Source: patent EP4491625A1, “BENZO BICYCLIC COMPOUND, AND PREPARATION METHOD AND APPLICATION THEREOF” (Guangzhou Unirise Pharmaceutical Co., Ltd., priority 2022, dated 2023)
Where two headings read alike, the source gives them in different places.

What was measured:
GLP-1 receptor = target: T1, GLP-1 receptor (Homo sapiens, UniProt P43220); assay: cAMP detection assay of agonistic effect in HEK293 cells with high expression of hGLP-1R; assay type: cell-based
T1 construct: host or cells: HEK293
Description: The cells were constructed by Wuxi New Drug Development Co., Ltd. Shanghai.
The compound was prepared with DMSO to a working concentration of 100µM or 10µM. 10 points of 4-fold dilution (maximum concentration of 1000nM or 100nM after dilution) was done with Bravo V11.
The compound to be tested was diluted 4 times with Bravo to obtain 10 concentrations and the initial concentration was 100µM by Bravo V11. The initial concentration was 100µM.

[1] = Human liver microsome stability test; assay type: in vitro ADME; conditions: pH 7.4; human liver microsomes 0.5 mg/mL, 1 µM compound, NADPH, 37 °C
Description: Preparation of compound working solutions: A high-concentration stock solution of the subject and control drug verapamil powder was prepared in DMSO and diluted to a working solution of 100 µM with DMSO before use, with a final concentration of 1 µM of the subject and verapamil.
Preparation of phosphate buffer salt (100 mM, pH 7.4): 7.098 g of disodium hydrogen phosphate was weighed and dissolved ultrasonically in 500 mL of purified water as solution A. 3.400 g of potassium dihydrogen phosphate was weighed and dissolved ultrasonically in 250 mL of purified water as solution B. Solution B was added to the inside of solution A to give a pH of 7.4.
Preparation of 10 mM NADPH: An appropriate amount of NADPH is now weighed before the experiment and a working solution of 10 mM concentration is prepared from phosphate solution.
Preparation of the incubation system: The incubation system was prepared according to the following table, and the incubation system was preheated in a water bath at 37 °C for 10 minutes before use.
Transfer 25 µL of NADPH or phosphate buffer salt to the above incubation system and add 2.5 µL of 100 µM subject or verapamil. For NADPH-added samples, double-parallel preparations were performed; for NADPH-negative samples, single-parallel preparations were performed.
30 µL of the suspension was taken at 0.5, 5, 15, 30, and 60 min, respectively. The reaction was terminated by adding 150 µL of acetonitrile containing the internal standard and vortexed for 10 min.
This was followed by centrifugation at 3220 g for 40 min for protein precipitation. 100 µL of supernatant was transferred to the injection plate and mixed with 100 µL of pure water for UPLC-MS/MS analysis.
All data calculations were performed by Microsoft Excel software. Peak areas were detected by extracted ion mapping. The in vitro half-life (t1/2) of the parent drug was assayed by fitting the natural logarithm of the percentage elimination of the parent drug linearly with time.
The in vitro half-life (t1/2) was calculated by slope: t1/2 = 0.693 / k
The in vitro clearance (in µL/min/mg) was calculated using the following formula: CLint =0.693/ t1/2 * (Incubation system volume (μL) / protein content (mg)) [formula]
Table 3 the experimental results of human liver microsome of the compounds provided in some examples of the present invention

[2] = Pharmacokinetic study in rats (intravenous or gavage, plasma LC-MS/MS); assay type: in vivo; conditions: SD rats; for F: po 5 mg/kg versus iv 1 mg/kg; for AUC(0-t) / Cmax / Tmax / half-life: rat, plasma
Description: SD rats: male, 6-8 weeks old, weighing 200-300 g, purchased from SPF ( Beijing ) Biotechnology Co.,Ltd..
At each PK sampling point, 200 µL of whole blood was collected into EDTA-K2 anticoagulant blood tubes and centrifuged at 4°C for 30 min to obtain plasma. Whole blood samples were placed on wet ice before centrifugation. All collected plasma samples were stored on dry ice or frozen until analyzed.
Approximately1 mg of the compound of the present application was weighed and dissolved in DMSO, vortexed and sonicated to obtain a 1 mg/mL standard stock solution. The standard stock solution was diluted with 50% aqueous acetonitrile to obtain standard working solutions with concentrations of 5, 10, 20, 50, 100, 500, 1000, 5000 and 10000 ng/mL. QC working solutions with concentrations of 10, 20, 500 and 8000 ng/mL were prepared using the same dilution method. These QC samples were prepared on the day of analysis in the same way as the standard curve samples.5 µL of standard working solution with concentrations of (5, 10, 20, 50, 100, 500, 1000, 5000 and 10000 ng/mL) was added to 50 µL of blank SD rat plasma to obtain a total volume of 55 µL with concentrations of 0.5-1000 ng/mL (0.5, 1, 2, 5, 10, 50, 100, 500, and 1000 ng/mL) of standard curve samples. QC samples with concentrations of (1 ng/ml (low-1) and 2 ng/ml (low-2), 50 ng/ml (medium), 800 ng/ml (high)) were configured separately.
55 µL of standard samples, 55 µL of QC samples or 55 µL of unknown samples (50 µL of plasma samples added to 5 µL of 50% aqueous acetonitrile) were added to 200 µL of acetonitrile containing an internal standard (dexamethasone) to precipitate proteins. […] The supernatant was taken and diluted 3-fold with water, and 5 µL of the supernatant dilution was injected into the LC-MS/MS system for quantitative analysis under the following assay conditions:
Column: HALO 90A Phenly-Hexyl, 2µm 2.1×30mm.
Pharmacokinetic parameters were calculated by the […] of Phoenix TM Winnonlin® 8.3 software.

T1 sequence (P43220 24-463): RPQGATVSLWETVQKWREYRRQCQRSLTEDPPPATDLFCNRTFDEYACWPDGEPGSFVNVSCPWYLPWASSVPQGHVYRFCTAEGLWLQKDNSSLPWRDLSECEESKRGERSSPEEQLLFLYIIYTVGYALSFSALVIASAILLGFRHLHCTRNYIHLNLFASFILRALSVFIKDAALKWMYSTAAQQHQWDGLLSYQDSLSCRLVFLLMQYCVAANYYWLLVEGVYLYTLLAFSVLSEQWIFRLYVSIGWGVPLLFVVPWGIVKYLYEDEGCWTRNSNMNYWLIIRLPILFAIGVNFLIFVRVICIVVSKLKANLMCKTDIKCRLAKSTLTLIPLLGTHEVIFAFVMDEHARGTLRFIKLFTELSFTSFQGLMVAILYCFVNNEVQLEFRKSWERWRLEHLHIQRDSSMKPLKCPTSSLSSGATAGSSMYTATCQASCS

| EC50 (GLP-1 receptor; agonistic effect, cAMP, HEK293 cells with high expression of hGLP-1R, read-out: EC50) | AUC(0-t) ([2]; male, iv, 1 mg/kg) | Cmax ([2]; male, iv, 1 mg/kg) | Tmax ([2]; male, iv, 1 mg/kg) | half-life ([2]; male, iv, 1 mg/kg) | AUC(0-t) ([2]; male, po, 5 mg/kg) | Cmax ([2]; male, po, 5 mg/kg) | Tmax ([2]; male, po, 5 mg/kg) | half-life ([2]; male, po, 5 mg/kg) | SMILES | half-life at 1 µM [1] | F [2] | EC50 (GLP-1 receptor) | AUC(0-t) ([2]; iv, 1 mg/kg) | Cmax ([2]; iv, 1 mg/kg) | Tmax ([2]; iv, 1 mg/kg) | half-life ([2]; iv, 1 mg/kg) | AUC(0-t) ([2]; po, 5 mg/kg) | Cmax ([2]; po, 5 mg/kg) | Tmax ([2]; po, 5 mg/kg) | half-life ([2]; po, 5 mg/kg) |
| --- | --- | --- | --- | --- | --- | --- | --- | --- | --- | --- | --- | --- | --- | --- | --- | --- | --- | --- | --- | --- |
| 0.23 nM | 1.24 µg·h/mL | 2.3 µg/mL | 0.083 h | 1.15 h | 1.96 µg·h/mL | 0.754 µg/mL | 1 h | 2.56 h | O=C(O)c1ccc2nc(CC3CC=C(c4cccc(OCc5ccc(Cl)c6cc(F)oc56)n4)CC3)n(C[C@@H]3CCO3)c2c1 (stereo partly drawn) [Compound 2, 2-((4-(6-((4-chloro-2-fluorobenzofuran-7-yl)methoxy)pyridin-2-yl)cyclohex-3-en-1-yl)methyl)-1-(((S)-oxetan-2-yl)methyl)-1H-benzo[d]imidazole-6-carboxylic acid] | 2.27 h | 31.8% |  |  |  |  |  |  |  |  |  |
|  |  |  |  |  |  |  |  |  | O=C(O)c1ccc2nc(C[C@H]3CC[C@H](c4cccc(OCc5ccc(Cl)c6cc(F)oc56)n4)CC3)n(C[C@@H]3CCO3)c2c1 [Compound 27B, 2-(((1r,4S)-4-(6-((4-chloro-2-fluorobenzofuran-7-yl)methoxy)pyridin-2-yl)cyclohexyl)methyl)-1-(((S)-oxetan-2-yl)methyl)-1H-benzo[d]imidazole-6-carboxylic acid] | 1.7 h | 44.4% | 0.17 nM | 1.68 µg·h/mL | 2.83 µg/mL | 0.083 h | 0.707 h | 3.67 µg·h/mL | 1.16 µg/mL | 0.833 h | 4.18 h |
